Test results published in PubChem BioAssay (NCI).
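A five-concentration, 48-hour dose response in 96-well plates underlies each endpoint, interpolated linearly between surrounding concentrations. At the TGI there is no net growth.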

Assays:
Test in all cases: inhibition of tumour cell growth, NCI panel, 48 h
SK-MEL-2 melanoma = system: SK-MEL-2 melanoma
MDA-MB-435 = system: MDA-MB-435
RPMI-8226 leukemia = system: RPMI-8226 leukemia
COLO 205 colon = system: COLO 205 colon
OVCAR-8 ovarian = system: OVCAR-8 ovarian
LOX IMVI melanoma = system: LOX IMVI melanoma
MCF7 breast = system: MCF7 breast
SNB-19 CNS = system: SNB-19 CNS
OVCAR-4 ovarian = system: OVCAR-4 ovarian
SK-MEL-28 melanoma = system: SK-MEL-28 melanoma
MDA-MB-231 breast = system: MDA-MB-231 breast
TK-10 renal = system: TK-10 renal
HOP-92 NSCLC = system: HOP-92 NSCLC
UO-31 renal = system: UO-31 renal
SN12C renal = system: SN12C renal
HCC-2998 colon = system: HCC-2998 colon
ACHN renal = system: ACHN renal
IGROV1 ovarian = system: IGROV1 ovarian
CCRF-CEM leukemia = system: CCRF-CEM leukemia
HCT-15 colon = system: HCT-15 colon
HS 578T breast = system: HS 578T breast
CAKI-1 renal = system: CAKI-1 renal
NCI-H23 lung = system: NCI-H23 lung
HCT-116 colon = system: HCT-116 colon
SK-OV-3 ovarian = system: SK-OV-3 ovarian
UACC-62 melanoma = system: UACC-62 melanoma
NCI-H226 lung = system: NCI-H226 lung
OVCAR-3 ovarian = system: OVCAR-3 ovarian
SF-295 CNS = system: SF-295 CNS
KM12 colon = system: KM12 colon
786-0 renal = system: 786-0 renal
NCI-H522 lung = system: NCI-H522 lung
MOLT-4 leukemia = system: MOLT-4 leukemia
K-562 leukemia = system: K-562 leukemia
OVCAR-5 ovarian = system: OVCAR-5 ovarian
NCI-H460 lung = system: NCI-H460 lung
HL-60(TB) leukemia = system: HL-60(TB) leukemia
U251 CNS = system: U251 CNS
A498 renal = system: A498 renal
SR leukemia = system: SR leukemia
SF-539 CNS = system: SF-539 CNS
PC-3 prostate = system: PC-3 prostate
SK-MEL-5 melanoma = system: SK-MEL-5 melanoma
DU-145 prostate = system: DU-145 prostate
NCI/ADR-RES ovarian = system: NCI/ADR-RES ovarian
BT-549 breast = system: BT-549 breast
M14 melanoma = system: M14 melanoma
SF-268 CNS = system: SF-268 CNS
HT29 colon = system: HT29 colon
MDA-N = system: MDA-N
EKVX NSCLC = system: EKVX NSCLC
A549 NSCLC = system: A549 NSCLC
SW-620 colon = system: SW-620 colon
UACC-257 melanoma = system: UACC-257 melanoma
MALME-3M melanoma = system: MALME-3M melanoma
RXF 393 renal = system: RXF 393 renal
SNB-75 CNS = system: SNB-75 CNS
HOP-62 NSCLC = system: HOP-62 NSCLC

Measured: TGI

COc1cc(C2S/C(=C/c3ccccc3)C(=O)N2c2cccc(Cl)c2)cc(OC)c1OC (stereo unspecified)
68.4 µM: BT-549 breast
57.8 µM: MDA-MB-435
83.3 µM: SR leukemia
81.8 µM: UACC-257 melanoma
55.1 µM: LOX IMVI melanoma
41.7 µM: NCI-H522 lung
86.8 µM: DU-145 prostate
73.4 µM: CCRF-CEM leukemia
not listed: MALME-3M melanoma | RXF 393 renal | SNB-75 CNS | HOP-62 NSCLC
> 100 µM: all other assays above

COC(=O)Cc1c(C(=O)CC(C)(C)n2cnc(CCN3C(=O)CCC3=O)c2)[nH]c2ccccc12
96 µM: RXF 393 renal
not listed: RPMI-8226 leukemia | HCC-2998 colon | HL-60(TB) leukemia | A498 renal | HOP-62 NSCLC
> 100 µM: all other assays above

CC(C)C1(Cl)CCC2C3(C)CCCC(C)(C(=O)O)C3CC(Cl)C2(Cl)C1Cl (stereo unspecified)
82.5 µM: SK-MEL-5 melanoma
84.4 µM: UACC-62 melanoma
81.9 µM: HCC-2998 colon
37.2 µM: COLO 205 colon
72.1 µM: SK-MEL-28 melanoma
78.6 µM: NCI-H226 lung
46.5 µM: SF-539 CNS
75.2 µM: NCI-H460 lung
91.3 µM: EKVX NSCLC
94.7 µM: OVCAR-5 ovarian
50.4 µM: HT29 colon
84 µM: OVCAR-4 ovarian
62.5 µM: U251 CNS
37.7 µM: KM12 colon
62.6 µM: HL-60(TB) leukemia
62.3 µM: MDA-MB-435
62.7 µM: RPMI-8226 leukemia
not listed: SK-OV-3 ovarian | OVCAR-3 ovarian | SF-295 CNS | DU-145 prostate | RXF 393 renal | SNB-75 CNS | HOP-62 NSCLC
> 100 µM: all other assays above

CC(OC(C)(C)C)[C@H](NC(=O)OCc1ccccc1)C(=O)NC(OCc1ccccc1)[C@H]1COC(C)(C)O1 (stereo partly specified)
> 100 µM: SK-MEL-28 melanoma | HCT-116 colon | RXF 393 renal | DU-145 prostate | SF-268 CNS | A549 NSCLC
not listed: RPMI-8226 leukemia | MCF7 breast | SR leukemia
> 10 µM: all other assays above

COc1cccc(CC2C(=O)N=C(NC(C)=O)N2C)c1OC(C)=O (stereo unspecified)
not listed: RPMI-8226 leukemia | K-562 leukemia | A498 renal | SR leukemia | MALME-3M melanoma
> 100 µM: all other assays above
